From patent publication US20110105389A1 (priority 2009, published 2011)
Like-named read-outs stand apart in the source and are kept apart here.

What was measured:
[1] = biological target: T1, human ghrelin receptor (GRLN, growth hormone secretagogue receptor, hGHS-R1a) (Homo sapiens, UniProt Q92847); assay: Competitive radioligand binding assay (ghrelin receptor), Method B1
T1 construct: purchased PerkinElmer BioSignal #RBHGHSM, lot#1887; host or cells: HEK-293 cells, stably transfected (membranes)
T1 sequence (Q92847 whole entry): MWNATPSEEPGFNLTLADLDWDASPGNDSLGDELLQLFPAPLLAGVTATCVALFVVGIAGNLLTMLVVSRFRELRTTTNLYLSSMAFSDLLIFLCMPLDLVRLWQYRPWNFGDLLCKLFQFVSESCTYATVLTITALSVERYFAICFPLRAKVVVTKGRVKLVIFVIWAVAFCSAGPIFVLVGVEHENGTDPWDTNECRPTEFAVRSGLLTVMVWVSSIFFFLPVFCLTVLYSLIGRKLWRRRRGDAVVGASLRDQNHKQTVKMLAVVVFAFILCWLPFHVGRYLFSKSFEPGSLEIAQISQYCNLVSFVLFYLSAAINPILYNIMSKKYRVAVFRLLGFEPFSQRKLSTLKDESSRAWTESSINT
Procedure: Multiscreen Harvest plates-GF/C (Millipore, #MAHFC1H60) • 4. […] Bottom seal (Millipore, #MATAH0P00) • 7. […] Binding Buffer: 25 mM Hepes (pH 7.4), 1 mM CaCl2, 5 mM MgCl2. 2.5 mM EDTA, 0.4% BSA
Competition experiments were performed in a 300 μl filtration assay format. • 1. 220 μL of membranes diluted in binding buffer • 2. 40 μL of compound diluted in binding buffer • 3.
Compounds were provided frozen on dry ice at a stock concentration of 10 mM diluted in 100% DMSO and stored at −80° C. until the day of testing. On the test day, compounds were allowed to thaw at rt overnight and then diluted in assay buffer according to the desired test concentrations. Under these conditions, the maximal final DMSO concentration in the assay was 0.1%.
Plates were sealed with TopSeal-A, vortexed gently and incubated at rt for 30 min. The reaction was arrested by filtering samples through Multiscreen Harvest plates (pre-soaked in 0.5% polyethyleneimine) using a Tomtec Harvester, washed 9 times with 500 μL of cold 50 mM Tris-HCl (pH 7.4, 4° C.), and then plates were air-dried in a fumehood for 30 min. A bottom seal was applied to the plates prior to the addition of 25 μL of MicroScint-0 to each well. Plates were than sealed with TopSeal-A and counted for 30 sec per well on a TopCount Microplate Scintillation and Luminescence Counter (PerkinElmer) using a count delay of 60 sec. Results were expressed as counts per minute (cpm).
Data were analyzed by GraphPad Prism (GraphPad Software, San Diego, Calif.) using a variable slope non-linear regression analysis. […] Dmax values were calculated using the following formula: […]

[2] = biological target: T2, ghrelin receptor (HEK-GHSR1 stable cells) (Homo sapiens, UniProt Q92847); assay: Ghrelin receptor inverse agonist assay (HTRF IP-one), Method B4; assay type: cell-based; details: inverse agonist at the ghrelin receptor, Method B4
T2 construct: expressed in transfected cells
T2 sequence (Q92847 whole entry): as above
From the text: B4. Ghrelin Receptor Inverse Agonist Assay […]
In addition, the following method can be utilized to assay for inverse agonist activity. (Thomsen, W.; et al. Curr. Opin. Biotechnol. 2005, 16, 655-665; Tozawa-Takahashi F; et al., 11th SBS Annual Conference. September 2005, Geneva; Trinquet, E.; Fink, M.; Bazin, H.; et al. Anal. Biochem. 2006, 358, 126-135; Bergsdorf, C.; Kropp-Goerkis, C.; Kaehler, I.; Ketscher, L.; Boerner, U.; Parczyk, K.; Bader, B. Assay Drug Dev. Technol. 2008, 6, 39-53.)
• 1. Remove culture medium from the plate by inversion. • 2. Add 70 μl of compound/well. • 3. Incubate 30 min at 37° C. • 4. Stop the reaction by adding 15 μl of lysis buffer/well. • 5. Add 15 μl of d2/well. • 6. Add 15 μl of Anti-IP1 cryptate/well. • 7. Incubate 1 h at room temp on an orbital shaker at 100 RPM. • 8. Read the fluorescence in a plate reader (Tecan GeniosPro or similar)
The above sequence was performed using the HTRF IP-one kit (CisBio cat#62P1APEC). For the simultaneous assay of multiple test compounds, 96-well plates can be utilized in this assay (white plate with flat-bottom well, Falcon #353296). These were seeded overnight with 100 000 of HEK-GHSR1 stable cells/well. • Wells A1 and A2 of each plate are used as negative control (wells without d2). Compounds are typically tested in replicate at the following concentrations:
Compounds are stored at 10 mM in 100% DMSO.
1st dilution 1/10 in 100% DMSO (1 mM final concentration).
2nd dilution 1/10 in H2O (0.1 mM final concentration).
Other dilutions are performed in a 96-well plate in stimulation buffer.
The results for representative compounds of the invention are provided in the Examples.

[3] = biological target: T3, GHS-R1a receptor (HEK293 cells expressing GHS-R1a receptor) (Homo sapiens, UniProt Q92847); assay: Fluorescence functional assay (ghrelin receptor), Method B2, agonist and antagonist mode; assay type: cell-based; details: functional activity as an antagonist at the ghrelin receptor, Methods B2 and B3
T3 construct: host or cells: HEK293
T3 sequence (Q92847 whole entry): as above
Procedure: • 1. ImageTrak Epi-Fluorescence system (Perkin-Elmer) • 2. MultiDrop TiterTek • 3. CO2 incubators: 5% CO2, humidified, 37° C.
• 1. Hanks' BSS without phenol red (Life Technologies) • 2. Hepes buffer • 3. Probenecid (Sigma) • 4. […] Falcon cell culture 96-well black/clear bottom plates • 6. 0.05% trypsin-EDTA • 7. Cells: HEK293 cells expressing GHS-R1a receptor (Perkin-Elmer BioSignal) were grown in DMEM (Dulbecco's Modified Eagles Medium) with 10% FBS, 1% sodium pyruvate, 1% NEAA and 400 μg/mL geneticin • 8. […] [D-Lys^3]-GHRP-6 (reference antagonist, Phoenix #031-22) • 10. Assay buffer: HBSS-20 mM Hepes containing 2.5 mM probenecid and 0.1% BSA (bovine serum albumin); pH 7.4
Stock solutions of compounds (10 mM in 100% DMSO) were provided frozen on dry ice and stored at −80° C. prior to use. […] Assay plates were then prepared by appropriate dilution in assay buffer.
Typical Final Test Concentrations (N=10) for Test Compounds (agonist):
Typical Final Test Concentrations (N=10) for Test Compounds (antagonist):
Cells were maintained in culture as indicated above. The cells were harvested at a confluency of 70-90% the day before the experiment. Growth medium was removed and the cells rinsed briefly with PBS without Ca^+2 and Mg^+2. 0.05% Trypsin was added and the plates incubated at 37° C. for 5 min to detach the cells. DMEM medium supplemented with 10% FBS was added to inactivate the trypsin and determine the cell concentration. The inoculum was adjusted to a final concentration of 200 cells/μL and dispensed at 200 μL per well into a 96-well block plate. The plates were, incubated at 37° C. overnight.
The plates were removed from the incubator and the media removed by inversion of the plates. Calcium-3 dye, 50 μL, was loaded and then incubated for 1 h at 37° C. The plate was again inverted and then 25 μL of assay buffer added. The plates were then transferred to the ImageTrak system for analysis. For agonist testing, after reading for ten (10) sec, 25 μL of 2× test compound or control was injected into the assay plate. Fluorescence was monitored for an additional 50 sec. A reading was taken every two (2) seconds for a total of 30 readings per assay point.
For antagonist testing, after reading for ten (10) sec, 12.5 μL of 3× test compound or control was injected into the assay plate and allowed to react for three (3) min.
Concentration response curves were analyzed using GraphPad Prism (GraphPad Software, San Diego, Calif.) by non-linear regression analysis (sigmoidal dose-response). EC50 values are calculated using GraphPad.
Emax values were calculated using the following formula: […]
Concentration response curves were analyzed using GraphPad Prism (GraphPad Software, San Diego, Calif.) by non-linear regression analysis (sigmoidal dose-response). IC50 values are calculated using GraphPad.
Imax values were calculated using the following formula: […]

[4] = Ghrelin receptor binding activity, Method B1

Row | Compound | IC50 [1, 4] [nM] | Antagonist Activity [3] | further results
1 | CCC(C)C1NCCOc2ccccc2CC(C)CNC(=O)C(Cc2ccccc2)NC(=O)C(C(C)O)N(C)C1=O (mixture of isomers) [Compound 1338] | 10 to 100 |  | Ki [1, 4]: 10 to 100 nM; IC50 [2]: 100 to 500 nM
2 | CC(O)[C@H]1C(=O)N[C@H](Cc2ccccc2)C(=O)NC/C=C/c2ccccc2OCCN[C@@H](C2CCCCC2)C(=O)N1C (stereo partly drawn) [Compound 1304] |  | C (C = 10-100 nM) | Ki [1, 4]: 10 to 100 nM
3 | CCC(C)[C@@H]1NCCOc2ccccc2/C=C/[C@H](C)NC(=O)[C@@H](Cc2ccccc2)NC(=O)[C@H](C(C)O)N(C)C1=O (stereo partly drawn) [Compound 1316] | 10 to 100 | D (D = 100-500 nM) | Ki [1, 4]: 10 to 100 nM
4 | CC(O)[C@H]1C(=O)N[C@H](Cc2ccccc2)C(=O)N[C@@H](C)/C=C/c2ccccc2OCCN[C@@H](C2CC2)C(=O)N1C (stereo partly drawn) [Compound 1317] | 10 to 100 | C (C = 10-100 nM) | Ki [1, 4]: 1 to 10 nM
5 | CCC(C)[C@@H]1NCCOc2ccccc2/C=C/CNC(=O)[C@@H](Cc2cccs2)NC(=O)[C@H](C(C)O)N(C)C1=O (stereo partly drawn) [Compound 1332] | 100 to 500 | D (D = 100-500 nM) | Ki [1, 4]: 10 to 100 nM
6 | CCC(C)[C@@H]1NCCOc2cc(F)ccc2CCCNC(=O)[C@@H](Cc2ccccc2)NC(=O)[C@H](C(C)O)N(C)C1=O (stereo partly drawn) [Compound 1343] |  | C (C = 10-100 nM) | Ki [1]: 1 to 10 nM
7 | CCC[C@@H]1NCCOc2ccccc2CC[C@@H](C)NC(=O)[C@@H](Cc2ccccc2)NC(=O)[C@H](C(C)O)N(C)C1=O (stereo partly drawn) [Compound 1394] |  | D (D = 100-500 nM) | 
8 | CC1CCc2ccccc2OCCNC(C(C)C)C(=O)N(C)C(C(C)O)C(=O)NC(Cc2c[nH]c3ncccc23)C(=O)N1 (stereo not drawn) [Compound 1408] |  |  | IC50 [2]: 10 to 50 nM
9 | CC(C)[C@@H]1NCCOc2ccc(F)cc2CC[C@@H](C)NC(=O)[C@@H](Cc2ccc(F)cc2)NC(=O)[C@H](C(C)O)N(C)C1=O (stereo partly drawn) [Compound 1436] |  | B (B = 1-10 nM) | 
10 | CC(O)[C@H]1C(=O)N[C@H](Cc2c[nH]c3ccccc23)C(=O)N[C@H](C)CCc2cc(F)ccc2OCCN[C@@H](C2CC2)C(=O)N1C (stereo partly drawn) [Compound 1442] |  | C (C = 10-100 nM) | 
11 | COc1cccc(C[C@H]2NC(=O)[C@H](C(C)O)N(C)C(=O)[C@H](C(C)C)NCCOc3cccc(F)c3CC[C@@H](C)NC2=O)c1 (stereo partly drawn) [Compound 1446] |  | B (B = 1-10 nM) | 
12 | CC(C)[C@@H]1NCCOc2cc(F)ccc2CC[C@@H](C)NC(=O)[C@@H](Cc2c[nH]c3ccccc23)NC(=O)[C@H](C(C)O)N(C)C1=O (stereo partly drawn) [Compound 1455] |  | B (B = 1-10 nM) | 
13 | CC(C)[C@@H]1NCCOc2cc(F)ccc2CCCNC(=O)[C@@H](Cc2cccc(Cl)c2)NC(=O)[C@H](C(C)O)N(C)C1=O (stereo partly drawn) [Compound 1460] |  | B (B = 1-10 nM) | 
14 | CC(C)[C@@H]1NCCOc2cc(F)ccc2CC[C@@H](C)NC(=O)[C@@H](Cc2ccc(F)cc2)NC(=O)[C@H](C(C)O)N(C)C1=O (stereo partly drawn) [Compound 1464] |  | B (B = 1-10 nM) | 
15 | CC(O)[C@H]1C(=O)N[C@H](Cc2ccc(Cl)cc2)C(=O)NC/C=C/c2ccccc2OCCN[C@@H](C2CCCCC2)C(=O)N1C (stereo partly drawn) [Compound 1710] | 10 to 100 |  | IC50 [2]: 100 to 500 nM
16 | CC(O)[C@H]1C(=O)N[C@H](Cc2ccc(F)cc2)C(=O)N[C@H](C)CCc2ccccc2OCCN[C@@H](C2CCCCC2)C(=O)N1C (stereo partly drawn) [Compound 1743] | 10 to 100 |  | IC50 [2]: 100 to 500 nM
17 | CC(O)[C@H]1C(=O)N[C@H](Cc2ccc(Cl)cc2)C(=O)NC/C=C/c2ccccc2OCCN[C@@H](C(C)(C)C)C(=O)N1C (stereo partly drawn) [Compound 1768] | 10 to 100 |  | IC50 [2]: 10 to 50 nM
18 | CCC(C)C1NCCOc2ccccc2C=CCNC(=O)C(Cc2ccccc2OC)NC(=O)C(C(C)O)N(C)C1=O (stereo not drawn) [Compound 1795] | 1 to 10 |  | IC50 [2]: 100 to 500 nM

Now from value to compound, other results behind:

Row | IC50 [1, 4] [nM] | Antagonist Activity [3] | Compound | further results
19 | 10 to 100 | C (C = 10-100 nM) | CCC(C)[C@@H]1NCCOc2ccccc2CC[C@H](C)NC(=O)[C@@H](Cc2ccccc2)NC(=O)[C@H](C(C)O)N(C)C1=O (stereo partly drawn) [Compound 1302] | Ki [1, 4]: 1 to 10 nM
20 |  | B (B = 1-10 nM) | CC(C)[C@@H]1NCCOc2ccccc2CC[C@@H](C)NC(=O)[C@@H](Cc2ccc(O)c(Cl)c2)NC(=O)[C@H](C(C)O)N(C)C1=O (stereo partly drawn) [Compound 1383] | 
21 |  | C (C = 10-100 nM) | CC(C)[C@@H]1NCCOc2ccccc2CC[C@@H](C)NC(=O)[C@@H](Cc2cccnc2)NC(=O)[C@H](C(C)O)N(C)C1=O (stereo partly drawn) [Compound 1384] | 
22 |  | B (B = 1-10 nM) | CC1CCc2ccccc2OCCNC(C(C)C)C(=O)N(C)C(C(C)O)C(=O)NC(Cc2ccccc2O)C(=O)N1 (stereo not drawn) [Compound 1401] | 
23 |  | B (B = 1-10 nM) | CC(C)[C@@H]1NCCOc2ccccc2CC[C@@H](C(F)(F)F)NC(=O)[C@@H](Cc2ccccc2)NC(=O)[C@H](C(C)O)N(C)C1=O (stereo partly drawn) [Compound 1402] | 
24 |  | B (B = 1-10 nM) | CC(C)[C@@H]1NCCOc2ccccc2CC[C@@H](C)NC(=O)[C@@H]([C@H](C)c2ccccc2)NC(=O)[C@H](C(C)O)N(C)C1=O (stereo partly drawn) [Compound 1404] | 
25 |  | B (B = 1-10 nM) | CC(C)[C@@H]1NCCOc2ccccc2CC[C@@H](C)NC(=O)[C@@H](Cc2cc(F)c(F)c(F)c2)NC(=O)[C@H](C(C)O)N(C)C1=O (stereo partly drawn) [Compound 1411] | 
26 |  | A (A <1 nM) | CC(C)[C@@H]1NCCOc2ccccc2CC[C@@H](C)NC(=O)[C@@H](Cc2csc3ccccc23)NC(=O)[C@H](C(C)O)N(C)C1=O (stereo partly drawn) [Compound 1416] | 
